≈ marks a conversion by molar mass, not a printed value. Like-named read-outs stand apart in the source and are kept apart here.
Tests used:
Haemophilus influenzae = assay: Broth microdilution MIC against Haemophilus influenzae clinical isolates; details: for MIC: all evaluated H. influenzae strains, incl. BLNAR, range tested 64-0.06; for MIC50 / MIC90: Haemophilus influenzae
B. cepacia [1] = assay: FIC checkerboard assay; type: cell-based
B. cenocepacia [2] = assay: FIC checkerboard assay; type: cell-based; details: during FIC testing
B. cenocepacia [3] = assay: Broth microdilution MIC (Example 10); details: initial MIC testing; B. cenocepacia isolate 0548 (CIP-R)
B. cepacia [4] = assay: Broth microdilution MIC (Example 10); details: initial MIC testing
A. niger = assay: Broth microdilution antifungal susceptibility (Example 13); type: cell-based; details: A. niger ATCC 29508
A. terreus = assay: as above; type: cell-based; details: A. terreus MMX 8229
A. fumigatus = assay: as above; type: cell-based
A. flavus = assay: as above; type: cell-based
P. aeruginosa = assay: FIC checkerboard assay; type: cell-based; details: for MICB / FICB: by checkerboard; for MIC: Pseudomonas aeruginosa, Aztreonam alone (checkerboard with BisEDT), read-out: Drug B MIC; for FICB: Colistin in combination with BisEDT
Burkholderia spp. = assay: organism not typed; type: cell-based
Escherichia coli = assay: Broth microdilution MIC (Example 12)
Klebsiella pneumoniae = assay: Broth microdilution MIC (Example 12)
Pseudomonas aeruginosa = assay: Broth microdilution MIC (Example 12)
Acinetobacter baumannii = assay: Broth microdilution MIC (Example 12)
[5] = during FIC testing, B. cepacia isolate 0546

“bismuth-1,2-ethanedithiol, 2-mercaptopyridine N-oxide [BisEDT/PYR]” gave an MIC (Haemophilus influenzae) of less than 0.06 µg/mL.
Work on “bismuth-2,3-butanedithiol, 2-mercaptopyridine N-oxide [BisBDT/PYR]” yielded an MIC (Haemophilus influenzae) of less than 0.06 µg/mL.
`C[C@H]1[C@H](NC(=O)/C(=N\OC(C)(C)C(=O)O)c2csc(N)n2)C(=O)N1S(=O)(=O)O` [AZT] showed an MIC (B. cepacia [1]; [5]) of 32 µg/mL, an MIC (B. cenocepacia [2]; B. cenocepacia isolate 0813 (CIP-I)) of 32 µg/mL and an MIC (B. cenocepacia [3]) of 64 µg/mL (≈ 147 µM).
For `CC[C@H]1OC(=O)[C@H](C)[C@@H](O[C@H]2C[C@@](C)(OC)[C@@H](O)[C@H](C)O2)[C@H](C)[C@@H](O[C@@H]2O[C@H](C)C[C@H](N(C)C)[C@H]2O)[C@](C)(O)C[C@@H](C)CN(C)[C@H](C)[C@@H](O)[C@]1(C)O` [azithromycin, Azithromycin], the MIC50 (Haemophilus influenzae) was 2 µg/mL (≈ 2.67 µM) and the MIC90 (Haemophilus influenzae) was 2 µg/mL (≈ 2.67 µM).
`NC[C@H]1O[C@H](O[C@H]2[C@H](O)[C@@H](O[C@H]3O[C@H](CO)[C@@H](O)[C@H](N)[C@H]3O)[C@H](N)C[C@@H]2N)[C@H](N)C[C@@H]1O` [TOB] showed an MIC (B. cepacia [1]; [5]) of 32 µg/mL, an MIC (B. cenocepacia [2]; B. cenocepacia isolate 0548 (CIP-R)) of 32 µg/mL and an MIC (B. cepacia [4]; B. cepacia isolate 0546) of 64 µg/mL (≈ 137 µM). For the same compound, the MIC (B. cepacia [4]; B. cepacia isolate 1793) was 64 µg/mL (≈ 137 µM), the MIC (B. cepacia [4]; B. cepacia isolate 1794) was 64 µg/mL (≈ 137 µM) and the MIC (B. cenocepacia [3]) was 64 µg/mL (≈ 137 µM).
Work on `CO/N=C(\C(=O)N[C@@H]1C(=O)N2C(C(=O)O)=C(COC(N)=O)CS[C@H]12)c1ccco1` [cefuroxime, Cefuroxime] yielded an MIC50 (Haemophilus influenzae) of 4 µg/mL (≈ 9.43 µM) and an MIC90 (Haemophilus influenzae) of 16 µg/mL (≈ 37.7 µM).
`CC1(C)S[C@@H]2[C@H](NC(=O)[C@H](N)c3ccccc3)C(=O)N2[C@H]1C(=O)O` [ampicillin, Ampicillin] gave an MIC50 (Haemophilus influenzae) of 2 µg/mL (≈ 5.72 µM) and an MIC90 (Haemophilus influenzae) of 4 µg/mL (≈ 11.4 µM).
Compound `OC(Cn1cncn1)(Cn1cncn1)c1ccc(F)cc1F` [FLU] has an MIC2 (A. niger) greater than 64 µg/mL, an MIC2 (A. terreus) greater than 64 µg/mL and an MIC2 (A. fumigatus; A. fumigatus ATCC 204305) greater than 64 µg/mL. For the same compound, the MIC2 (A. fumigatus; A. fumigatus ATCC MYA-3626) was greater than 64 µg/mL, the MIC2 (A. fumigatus; A. fumigatus MMX 5934) was greater than 64 µg/mL and the MIC2 (A. fumigatus; A. fumigatus MMX 5938) was greater than 64 µg/mL. For the same compound, the MIC2 (A. fumigatus; A. fumigatus MMX 5939) was greater than 64 µg/mL, the MIC2 (A. flavus; A. flavus ATCC 22546) was greater than 64 µg/mL and the MIC2 (A. flavus; A. flavus ATCC 204304) was greater than 64 µg/mL. The MIC2 (A. flavus; A. flavus MMX 7935) was greater than 64 µg/mL.
`C[C@H]1[C@H](NC(=O)/C(=N\OC(C)(C)C(=O)O)c2csc(N)n2)C(=O)N1S(=O)(=O)O` [Aztreonam] was tested, and the MICB (P. aeruginosa; P. aeruginosa 7745, Aztreonam MIC in combination with BisEDT) was 16 µg/mL, the MICB (P. aeruginosa; P. aeruginosa 9108, Aztreonam MIC in combination with BisEDT) was 16 µg/mL and the MIC (P. aeruginosa; P. aeruginosa 6322) was 32 µg/mL. It also gave an MIC (P. aeruginosa; P. aeruginosa 6977) of 64 µg/mL, an MIC (P. aeruginosa; P. aeruginosa 7745) of 16 µg/mL and an MIC (P. aeruginosa; P. aeruginosa 8798) greater than 256 µg/mL. The MIC (P. aeruginosa; P. aeruginosa 9108) was 16 µg/mL, the MIC (B. cepacia [1]; Burkholderia cepacia, B. cepacia 546, Aztreonam alone (checkerboard with BisEDT), read-out: Drug B MIC) was 32 µg/mL and the MIC (B. cepacia [1]; Burkholderia cepacia, B. cepacia 1793, Aztreonam alone (panel with BisEDT), read-out: Drug B MIC) was 128 µg/mL. For the same compound, the MIC (Burkholderia spp.; read-out: Drug B MIC) was 16 µg/mL (≈ 36.7 µM).
Colistin gave an MICB (P. aeruginosa; P. aeruginosa 6322, Colistin MIC in combination with BisEDT) of 0.5 µg/mL, an FICB (P. aeruginosa; P. aeruginosa 6322) of 1 and an MICB (P. aeruginosa; P. aeruginosa 6977, Colistin MIC in combination with BisEDT) of 1 µg/mL. It also gave an FICB (P. aeruginosa; P. aeruginosa 6977) of 1, an MICB (P. aeruginosa; P. aeruginosa 7745, Colistin MIC in combination with BisEDT) of 0.5 µg/mL and an FICB (P. aeruginosa; P. aeruginosa 7745) of 1. It also gave an FICB (Burkholderia spp.; B. multivorans 1795, FIC of Colistin in combination with BisEDT, per checkerboard row) of 1.
`NCC[C@H](O)C(=O)N[C@@H]1C[C@H](N)[C@@H](O[C@H]2O[C@H](CN)[C@@H](O)[C@H](O)[C@H]2O)[C@H](O)[C@H]1O[C@H]1O[C@H](CO)[C@@H](O)[C@H](N)[C@H]1O` [AMK] gave an MIC (B. cepacia [1]; [5]) of 64 µg/mL, an MIC (B. cepacia [1]; during FIC testing, B. cepacia isolate 1793) of 32 µg/mL and an MIC (B. cepacia [4]; B. cepacia isolate 0546) of 64 µg/mL (≈ 109 µM). For the same compound, the MIC (B. cepacia [4]; B. cepacia isolate 1793) was 64 µg/mL (≈ 109 µM), the MIC (Escherichia coli; E. coli ATCC 35218, ESBL) was 1 µg/mL (≈ 1.71 µM) and the MIC (Escherichia coli; E. coli ATCC 35218, QC organism (Table 102)) was 1 µg/mL (≈ 1.71 µM). The MIC (Escherichia coli; E. coli ATCC BAA-2471, NDM) was 64 µg/mL (≈ 109 µM), the MIC (Escherichia coli; E. coli CDC 114, ESBL/KPC) was 1 µg/mL (≈ 1.71 µM) and the MIC (Escherichia coli; E. coli CDC 118, ESBL/NDM) was greater than 64 µg/mL. For the same compound, the MIC (Escherichia coli; E. coli CDC 435, NDM) was greater than 64 µg/mL, the MIC (Escherichia coli; E. coli CDC 451, KPC) was 4 µg/mL (≈ 6.83 µM) and the MIC (Escherichia coli; E. coli CDC 503, ESBL/NDM) was greater than 64 µg/mL. The MIC (Escherichia coli; E. coli MMX 5745, KPC) was 0.5 µg/mL (≈ 0.854 µM), the MIC (Escherichia coli; E. coli MMX 5755, ESBL) was 16 µg/mL (≈ 27.3 µM) and the MIC (Escherichia coli; E. coli MMX 5756, ESBL) was 64 µg/mL (≈ 109 µM). The MIC (Escherichia coli; E. coli MMX 5758, ESBL) was 1 µg/mL (≈ 1.71 µM), the MIC (Klebsiella pneumoniae; K. pneumoniae ATCC BAA-1705, ESBL/KPC) was 16 µg/mL (≈ 27.3 µM) and the MIC (Klebsiella pneumoniae; K. pneumoniae ATCC BAA-1705, QC organism (Table 102)) was 16 µg/mL (≈ 27.3 µM). For the same compound, the MIC (Klebsiella pneumoniae; K. pneumoniae CDC 112, KPC) was 16 µg/mL (≈ 27.3 µM), the MIC (Klebsiella pneumoniae; K. pneumoniae CDC 113, ESBL/KPC) was 16 µg/mL (≈ 27.3 µM) and the MIC (Klebsiella pneumoniae; K. pneumoniae CDC 115, ESBL/KPC) was 0.5 µg/mL (≈ 0.854 µM). It also gave an MIC (Klebsiella pneumoniae; K. pneumoniae CDC 120, ESBL/KPC) of 16 µg/mL (≈ 27.3 µM), an MIC (Klebsiella pneumoniae; K. pneumoniae CDC 126, ESBL/KPC) of 2 µg/mL (≈ 3.42 µM) and an MIC (Klebsiella pneumoniae; K. pneumoniae CDC 129, ESBL/KPC) of 32 µg/mL (≈ 54.6 µM). For the same compound, the MIC (Klebsiella pneumoniae; K. pneumoniae CDC 135, ESBL/VIM) was 16 µg/mL (≈ 27.3 µM), the MIC (Klebsiella pneumoniae; K. pneumoniae CDC 138, ESBL/NDM) was greater than 64 µg/mL and the MIC (Klebsiella pneumoniae; K. pneumoniae CDC 158, ESBL/NDM/OXA) was 2 µg/mL (≈ 3.42 µM). For the same compound, the MIC (Klebsiella pneumoniae; K. pneumoniae MMX 9029, ESBL) was 0.5 µg/mL (≈ 0.854 µM), the MIC (Pseudomonas aeruginosa; P. aeruginosa CDC 230, VIM/OXA) was greater than 64 µg/mL and the MIC (Pseudomonas aeruginosa; P. aeruginosa CDC 231, KPC/OXA) was 8 µg/mL (≈ 13.7 µM). The MIC (Pseudomonas aeruginosa; P. aeruginosa CDC 241, IMP/OXA) was 32 µg/mL (≈ 54.6 µM), the MIC (Pseudomonas aeruginosa; P. aeruginosa CDC 246, NDM/OXA) was greater than 64 µg/mL and the MIC (Pseudomonas aeruginosa; P. aeruginosa CDC 250, NDM/OXA) was greater than 64 µg/mL. The MIC (Pseudomonas aeruginosa; P. aeruginosa CDC 356, KPC) was 2 µg/mL (≈ 3.42 µM), the MIC (Pseudomonas aeruginosa; P. aeruginosa CDC 439, IMP) was greater than 64 µg/mL and the MIC (Pseudomonas aeruginosa; P. aeruginosa CDC 444, VIM) was greater than 64 µg/mL. It also gave an MIC (Pseudomonas aeruginosa; P. aeruginosa CDC 457, VIM) of 2 µg/mL (≈ 3.42 µM), an MIC (Pseudomonas aeruginosa; P. aeruginosa CDC 516, KPC/AmpC) of 2 µg/mL (≈ 3.42 µM) and an MIC (Pseudomonas aeruginosa; P. aeruginosa CDC 518, KPC/AmpC) of 16 µg/mL (≈ 27.3 µM). It also gave an MIC (Acinetobacter baumannii; A. baumannii CDC 273, ESBL/OXA) greater than 64 µg/mL, an MIC (Acinetobacter baumannii; A. baumannii CDC 274, ESBL/OXA) of 16 µg/mL (≈ 27.3 µM) and an MIC (Acinetobacter baumannii; A. baumannii CDC 275, ESBL/OXA) greater than 64 µg/mL. For the same compound, the MIC (Acinetobacter baumannii; A. baumannii CDC 277, ESBL/OXA) was 16 µg/mL (≈ 27.3 µM), the MIC (Acinetobacter baumannii; A. baumannii CDC 284, ESBL/OXA) was 32 µg/mL (≈ 54.6 µM) and the MIC (Acinetobacter baumannii; A. baumannii CDC 307, OXA) was greater than 64 µg/mL. For the same compound, the MIC (Acinetobacter baumannii; A. baumannii CDC 308, ESBL/OXA) was greater than 64 µg/mL, the MIC (Acinetobacter baumannii; A. baumannii CDC 311, OXA) was greater than 64 µg/mL and the MIC (Acinetobacter baumannii; A. baumannii CDC 312, OXA) was 1 µg/mL (≈ 1.71 µM). For the same compound, the MIC (Acinetobacter baumannii; A. baumannii CDC 313, ESBL/OXA) was 4 µg/mL (≈ 6.83 µM) and the MIC (Acinetobacter baumannii; A. baumannii NCTC 13304, OXA) was 0.5 µg/mL (≈ 0.854 µM).
